What was measured:
[1] = system: PCDH-ZM2-2 expressing cells; assay: Intracranial tumor model, survival and brain MRI, ZM2-2 mice (2); assay type: in vivo, nude mice
Description: (§1) First, a tumor-bearing mouse model was established. “PCDH-blank expressing cells” and “PCDH-ZM2-2 expressing cells” prepared in Example 4 were prepared into suspensions of 10^5 cells/5 μl with PBS respectively. Nude mice sterilized with 75% ethanol were inoculated with […] the cell suspensions. The cell inoculation position (2 mm away on the right side of anterior fontanel, and 2 mm backward) was determined using a brain stereotaxic apparatus for mouse; the injection depth was 3.5 mm and then elevated by 0.6 mm; and 5 μl of cell solutions respectively was injected to each mouse. After injection, the mice were kept still for 1 min, and then received a conventional skin closure. After intracranial tumors were observed, the tumor-bearing mice obtained with the “PCDH-blank expressing cells” were named as “vector mice (2)”, and the tumor-bearing mice obtained with the “PCDH-ZM2-2 expressing cells” were named as “ZM2-2 mice (2)”.
(§2) 8 Vector mice (2) and 8 ZM2-2 mice (2) were respectively administered with the compound represented by the formula A at a dose of 50 mg/KG weight/day. The compound was administrated once a day by gavage. At the same time, another group of 8 ZM2-2 mice (2) were given with normal saline, as a control group. The experiment lasted for over 6 weeks.
The brains of ZM2-2 mice (2) given with the compound represented by formula A were detected by nuclear magnetic resonance imaging on the 16th day after the compound represented by formula A was administered for the first time. […] See results in panel 7C.
Another 8 ZM2-2 mice (2) were also administered with the compound represented by formula A at a dose of 50 mg/KG weight/day. The compound was administrated once a day by gavage. Then, the compound administration was stopped on the 16th day after the first administration, and the brains were detected through nuclear magnetic resonance imaging on the 10th day after the compound withdrawal. […] Results are shown in panel 7D.

[2] = system: PCDH-ZM2-2 expressing cells (U87); assay: MTT inhibition of glioblastoma cell proliferation, ZM2-2 fusion protein expressing cells; assay type: cell-based; conditions: Homo sapiens, 72 hours, read-out: Inhibitory activities (IC50, μM) of tested compounds on cells
Excerpt: (§3) First, a lentiviral vector PCDH (PCDH-EF1-MCS-T2A-Puro, SBI, product No.: CD510B-1, structure shown in FIG. 4) was used, and the nucleotide sequence as shown by SEQ ID NO: 7 or SEQ ID NO: 8 was cloned into the vector according to the instructions thereof, to prepare expression vectors which expressed fusion proteins respectively represented by SEQ ID NO: 3 and SEQ ID NO: 4. The expression vectors were respectively named and marked as “PCDH-ZM1-2” and “PCDH-ZM2-2”. Then, a viral packaging plasmid (SBI, product No. LV500A-1) was used to co-infect 293T cells with one of the vectors to prepare a lentivirus. The same method was performed to package the lentiviral vector PCDH and co-infect 293T cells, to prepare a lentivirus with the blank vector, which was named as “PCDH-blank”.
(§4) The U87 cells were infected with any of the lentiviruses as prepared above and screened by applying puromycin (0.5 μg/mL for screening, and 0.2 μg/mL for maintenance) to establish cell models which stably expressed the fusion proteins. The cell models were verified for the expression of the fusion proteins and the transcription of the fusion genes by immunoblotting and reverse transcription PCR, and cell lines which stably expressed fusion proteins ZM1-2 and ZM2-2 respectively were obtained finally and named as “PCDH-ZM1-2 expressing cells” and “PCDH-ZM2-2 expressing cells” respectively. Similarly, U87 cells were infected with the lentivirus PCDH-blank with the blank vector to obtain “PCDH-blank expressing cells” as a blank reference.
(§5) Those U87 cells which were cultured in a large dish and were in a logarithmic stage were washed once with sterile PBS, and then digested with 0.25% trypsin for 2 min. After all cells were digested to detach, complete DMEM medium containing 10% fetal bovine serum (FBS) was used to stop the digestion. The cells were counted and the cell concentration was adjusted to 20,000 cells/ml. Then, the cells were seeded into a Corning 96-well plate (2,000 cells/well) using a multi-channel pipette, and incubated in a 5% CO2 incubator at 37° C. for 24 hours. The compounds to be tested (crizotinib and the compounds represented by formulas A to H) were respectively dissolved in DMSO to prepare stock solutions, and then the stock solutions and the complete medium were used to prepare solutions with different concentrations of medicaments (0, 5, 10, 20, 40, 60, 80, 100 μM). The cells were incubated in the incubator for additional 72 hours, and then 20 μl of 3-(4,5-dimethylthiazole-2)-2,5-diphenyl tetrazolium bromide (MTT) was added into each well. After 1-3 hours in the incubator, the absorbance at 490 nm was determined using a microplate reader. The inhibition rate corresponding to each concentration was calculated, and the value of IC50 was calculated with GraphPad software.

[3] = system: PCDH-ZM2-2 expressing cells; assay: Inhibition of subcutaneous tumor growth in ZM2-2 mice (1); assay type: in vivo, BALB/c (nu/nu) nude mice; conditions: 10 mg/KG/day by gavage, vs normal saline, FIG. 5
Description: First, a tumor-bearing mouse model was established. BALB/c (nu/nu) maternal nude mice, aged 6-8 weeks, with a weight of about 16-18 g were purchased from Vital River. “PCDH-blank expressing cells” and “PCDH-ZM2-2 expressing cells” prepared in Example 4 were prepared into suspensions of 10^7 cells/ml with PBS respectively. Nude mice sterilized with 75% ethanol were subcutaneously injected with 100 μl of the cell suspensions at the right scapular area, in which the PCDH-blank expressing cells were injected into seven nude mice, and PCDH-ZM2-2 expressing cells were injected into 21 nude mice. […] The tumor size and variations in mouse weight were measured twice a week. […]
When the tumors grew to have a volume of about 100 mm^3, the ZM2-2 mice (1) were divided into three groups according to mean tumor size, including a group of 7 mice which were administered with the compound represented by formula A, a group of 7 mice which were administered with crizotinib, and a control group of 7 mice. […] The tumor size and variations in mouse weight were measured twice a week. The tumor diameter was measured with a vernier caliper, and the equation for calculating tumor volume was: tumor volume=0.5*Length*Width^2.

[4] = system: PCDH-blank expressing cells; assay: Intracranial tumor model, survival, vector mice (2); assay type: in vivo, nude mice; conditions: 50 mg/KG weight/day by gavage, over 6 weeks, FIG. 6
Description: as §1, §2

[5] = system: PCDH-ZM1-2 expressing cells (U87); assay: MTT inhibition of glioblastoma cell proliferation, ZM1-2 fusion protein expressing cells; assay type: cell-based; conditions: Homo sapiens, 72 hours, read-out: Inhibitory activities (IC50, μM) of tested compounds on cells
Excerpt: as §3, §4, §5

[6] = system: human glioma cell line U87; assay: MTT inhibition of glioblastoma cell proliferation, U87 initial cells; assay type: cell-based; conditions: 72 hours, read-out: Inhibitory activities (IC50, μM) of tested compounds on cells
Description: The compound represented by formula A and crizotinib as well as compounds represented by formulas B to H that respectively have a structure similar to the structure of formula A were employed to carry out the experiment of testing the activity of inhibiting glioblastoma cell proliferation.
as §4, §5

[7] = system: PCDH-blank expressing cells (U87); assay: MTT inhibition of glioblastoma cell proliferation, blank reference cells; assay type: cell-based; conditions: Homo sapiens, U-87 MG, 72 hours, read-out: Inhibitory activities (IC50, μM) of tested compounds on cells
Excerpt: as §3, §4, §5

Row | IC50 [2] | IC50 [5] | IC50 [6] | IC50 [7] | SMILES | intracranial tumor growth after compound withdrawal by nuclear magnetic resonance imaging ([1]; 50 mg/KG weight/day stopped on 16th day, imaged 10th day after withdrawal, panel 7D) | intracranial tumor size by nuclear magnetic resonance imaging ([1]; 50 mg/KG weight/day, 16th day after first administration, panel 7C) | survival time of mice ([1]; intracranial, 50 mg/KG weight/day by gavage, over 6 weeks, FIG. 6) | growth of tumors (tumor volume) [3] | survival of mice [4]
1 | 7.21 µM | 5.22 µM | 5.56 µM | 4.93 µM | Cn1cc(-c2ccc3nnc(C(F)(F)c4cc5cn(C)nc5cc4F)n3n2)cn1 [Formula D] |  |  |  |  | 
2 | 15.2 µM | 6.75 µM | 9.07 µM | 9.25 µM | Cn1cc2cc(C(F)(F)c3nnc4ncc(-c5cnn(C6CC6)c5)cn34)c(F)cc2n1 [Formula G] |  |  |  |  | 
3 | 21.9 µM | 32.6 µM | 17.2 µM | 21.6 µM | CC(C)n1cc(-c2ccc3nnc(C(F)(F)c4cc5cn(C)nc5cc4F)n3n2)cn1 [Formula E] |  |  |  |  | 
4 | 12.8 µM | 9.45 µM | 4.78 µM | 5.79 µM | Cn1cc2cc(C(F)(F)c3nnc4ccc(-c5ccc(NC(=O)C6CC6)c(F)c5)nn34)c(F)cc2n1 [Formula C] |  |  |  |  | 
5 | 9.76 µM | 8.26 µM | 2.99 µM | 3.27 µM | C[C@@H](Oc1cc(-c2cnn(C3CCNCC3)c2)cnc1N)c1c(Cl)ccc(F)c1Cl [Crizotinib] |  |  |  |  | 
6 | 5.59 µM | 7.63 µM | 8.15 µM | 6.02 µM | CNC(=O)c1c(F)cc(-c2ccc3nnc(C(F)(F)c4cc5cn(C)nc5cc4F)n3n2)cc1F [Formula B] |  |  |  |  | 
7 | 45.1 µM | 23.3 µM | 25.4 µM | 19.4 µM | Nc1nc2cc(F)c(Cc3nnc4ccc(-c5cnn(C6CC6)c5)nn34)cc2s1 [Formula H] |  |  |  |  | 
8 | 125 µM | 90.3 µM | 64.4 µM | 58.8 µM | Cn1cc2cc(C(F)(F)c3nnc4ccc(-c5cnn(C6CC6)c5)cn34)c(F)cc2n1 [Formula F] |  |  |  |  | 

Row | SMILES | IC50 [2] | IC50 [5] | IC50 [6] | IC50 [7] | intracranial tumor growth after compound withdrawal by nuclear magnetic resonance imaging ([1]; 50 mg/KG weight/day stopped on 16th day, imaged 10th day after withdrawal, panel 7D) | intracranial tumor size by nuclear magnetic resonance imaging ([1]; 50 mg/KG weight/day, 16th day after first administration, panel 7C) | survival time of mice ([1]; intracranial, 50 mg/KG weight/day by gavage, over 6 weeks, FIG. 6) | growth of tumors (tumor volume) [3] | survival of mice [4]
9 | Cn1cc2cc(C(F)(F)c3nnc4ccc(-c5cnn(C6CC6)c5)nn34)c(F)cc2n1 [Formula A] | 1.83 µM | 1.34 µM | 3.51 µM | 2.85 µM | resumed rapid growth | obviously became smaller | obviously prolonged the survival time | significantly inhibit the growth of tumors | all survived
